Source: patent US20110230476A1, “PI3 KINASE INHIBITORS AND USES THEREOF” (AVILA THERAPEUTICS, INC., priority 2009, published 2011)

Legend:
[1] = biological target: T1, PI3Kα (p110α/p85α) (Homo sapiens, UniProt P42336); experiment: HTRF assay, potency against active PI3Kα; type: biochemical; conditions: HTRF; [ATP]=50 μM, [di-C8-PIP2]=10 μM; 30 min pre-incubation; read-out: PI3Kα Inhibition
T1 construct: purchased BPS Bioscience (San Diego, Calif.) or Millipore (Billerica, Mass.)
In short: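 IC50 came from a variable-slope fit of % inhibition, calculated from the HTRF emission ratio relative to wells with and without enzyme. Reactions with the active enzyme complex ran 30-60 minutes at 25 °C after ATP addition before stop and detection reagents.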

[2] = test system: Phospho-Akt(Ser473); experiment: Dose response in SKOV3 cells as determined by in-cell Western; type: cell-based; conditions: Homo sapiens, SK-OV-3; SKOV3 cells, 1 hr; read-out: pAKT Inhibition in cell Western
Experimental: Dose Response in SKOV3 Cells as Determined by in-Cell Western
Twenty four hours later the media was removed and replaced with 100 ul media containing test compound or control compound and cells were returned to the incubator for 1 hr. At the end of the hour, the media was removed and the cells were washed once with PBS, then fixed for 20 minutes at room temperature in 4% formaldehyde in PBS. The formaldehyde was removed and cells were washed 5 times for 5 minutes with 100 ul of Permeabilization Buffer (PBS+0.1% Triton X-100) at room temperature with gentle shaking. The last wash was removed and replaced with 150 ul of Odyssey Blocking Buffer (Li-Cor, Lincoln, Nebr.) and incubated for 90 minutes at room temperature with gentle shaking.
The Blocking Buffer was then replaced with 50 ul of primary antibody mix (rabbit anti-Phospho-Akt(Ser473) at 1:100 (Cell Signaling Technology, Boston, Mass.) and mouse anti-tubulin at 1:5000 (Sigma Aldrich, St. Louis, Mo.) diluted in Odyssey Blocking Buffer) and incubated overnight at room temperature with gentle shaking.
The next morning, the antibody mix was removed and the wells were washed 5 times for 5 minutes with PBS+0.1% Tween-20. The last wash was replaced with 50 ul of secondary antibody mix (goat anti-rabbit-IRDye-680 and goat anti-mouse-IRDye-800 (Li-Cor), both diluted 1:1000 in Odyssey Blocking Buffer+0.2% Tween-20) and incubated for 1 hour at room temperature with gentle shaking. The antibody mix was removed and the wells were washed 5 times for 5 minutes in PBS+0.1% Tween-20, then 1 time with ddH2O.
The plates were scanned on an Odyssey machine (Li-Cor) with a 3 mm focus offset at an intensity of 8 in both channels and the data was analyzed using the Odyssey software.

T1 sequence (P42336 whole entry): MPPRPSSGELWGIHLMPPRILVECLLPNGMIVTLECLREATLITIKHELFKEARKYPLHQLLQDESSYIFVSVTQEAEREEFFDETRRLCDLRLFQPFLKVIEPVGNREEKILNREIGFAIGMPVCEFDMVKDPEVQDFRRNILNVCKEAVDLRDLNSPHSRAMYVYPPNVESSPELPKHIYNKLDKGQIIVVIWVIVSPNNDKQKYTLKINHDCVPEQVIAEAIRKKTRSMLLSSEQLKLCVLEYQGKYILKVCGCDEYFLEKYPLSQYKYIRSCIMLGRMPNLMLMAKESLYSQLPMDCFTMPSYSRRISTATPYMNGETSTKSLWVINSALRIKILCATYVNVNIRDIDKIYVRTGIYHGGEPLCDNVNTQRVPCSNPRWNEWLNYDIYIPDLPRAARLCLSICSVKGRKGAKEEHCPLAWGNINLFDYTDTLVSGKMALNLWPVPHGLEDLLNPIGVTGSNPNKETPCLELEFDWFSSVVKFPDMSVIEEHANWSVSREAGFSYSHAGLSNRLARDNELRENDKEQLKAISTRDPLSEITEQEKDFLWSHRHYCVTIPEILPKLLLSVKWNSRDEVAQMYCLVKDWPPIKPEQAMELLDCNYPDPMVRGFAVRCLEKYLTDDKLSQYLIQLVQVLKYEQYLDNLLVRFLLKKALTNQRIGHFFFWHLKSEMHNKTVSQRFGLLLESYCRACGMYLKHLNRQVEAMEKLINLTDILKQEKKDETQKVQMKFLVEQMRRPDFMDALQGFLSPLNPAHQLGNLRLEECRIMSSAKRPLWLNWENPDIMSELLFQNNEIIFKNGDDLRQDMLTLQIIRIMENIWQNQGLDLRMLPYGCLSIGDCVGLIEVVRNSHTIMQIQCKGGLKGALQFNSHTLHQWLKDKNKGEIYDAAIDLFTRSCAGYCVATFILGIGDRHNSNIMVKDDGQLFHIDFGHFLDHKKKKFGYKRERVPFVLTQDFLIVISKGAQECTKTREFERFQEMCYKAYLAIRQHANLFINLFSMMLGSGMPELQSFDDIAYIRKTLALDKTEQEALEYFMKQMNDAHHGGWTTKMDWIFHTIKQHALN
T1 sequence (P27986 whole entry partner): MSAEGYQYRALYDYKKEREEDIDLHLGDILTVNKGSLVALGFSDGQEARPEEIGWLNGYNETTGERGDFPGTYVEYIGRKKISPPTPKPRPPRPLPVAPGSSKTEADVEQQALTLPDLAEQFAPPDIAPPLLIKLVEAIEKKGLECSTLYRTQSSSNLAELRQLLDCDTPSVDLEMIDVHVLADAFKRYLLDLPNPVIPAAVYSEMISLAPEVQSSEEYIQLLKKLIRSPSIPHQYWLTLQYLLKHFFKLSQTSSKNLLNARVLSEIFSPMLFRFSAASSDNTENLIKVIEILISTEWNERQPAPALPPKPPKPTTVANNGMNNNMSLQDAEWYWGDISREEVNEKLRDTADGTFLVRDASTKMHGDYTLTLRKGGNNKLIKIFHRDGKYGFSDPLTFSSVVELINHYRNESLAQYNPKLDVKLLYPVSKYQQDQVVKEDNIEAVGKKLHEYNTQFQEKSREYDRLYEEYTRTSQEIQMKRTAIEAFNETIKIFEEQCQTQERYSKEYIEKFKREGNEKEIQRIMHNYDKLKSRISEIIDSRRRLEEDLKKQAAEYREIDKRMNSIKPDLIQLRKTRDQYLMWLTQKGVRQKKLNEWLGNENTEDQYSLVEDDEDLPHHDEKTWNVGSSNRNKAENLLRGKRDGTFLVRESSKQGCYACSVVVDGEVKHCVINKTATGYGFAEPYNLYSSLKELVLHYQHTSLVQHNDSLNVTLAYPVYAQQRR

Row | IC50 [1] | EC50 [2] | SMILES
1 | 100 to 1000 nM | 10 to 100 nM | Cn1cncc1/C=C/C(=O)CCC(=O)N1CCN(Cc2cc3nc(-c4cccc5[nH]ncc45)nc(N4CCOCC4)c3s2)CC1 [II-a-130, (E)-1-(4-((2-(1H-indazol-4-yl)-4-morpholinothieno[3,2-d]pyrimidin-6-yl)methyl)piperazin-1-yl)-6-(1-methyl-1H-imidazol-5-yl)hex-5-ene-1,4-dione]
2 | 100 to 1000 nM | 10 to 100 nM | C=CC(=O)Nc1ccc(C(=O)N2CCC(n3ncc4c(N5CCOCC5)nc(-c5cnc(N)nc5)nc43)CC2)cc1 [VII-12, N-(4-(4-(6-(2-aminopyrimidin-5-yl)-4-morpholino-1H-pyrazolo[3,4-d]pyrimidin-1-yl)piperidine-1-carbonyl)phenyl)acrylamide]
3 | 100 to 1000 nM | ≤ 10 nM | COC/C=C(\C)C(=O)CCC(=O)N1CCN(Cc2cc3nc(-c4cccc5[nH]ncc45)nc(N4CCOCC4)c3s2)CC1 [II-a-161, (E)-1-(4-((2-(1H-indazol-4-yl)-4-morpholinothieno[3,2-d]pyrimidin-6-yl)methyl)piperazin-1-yl)-7-methoxy-5-methylhept-5-ene-1,4-dione]
4 | 100 to 1000 nM | 10 to 100 nM | C=CC(=O)Nc1ccc(CCNC(=O)c2cc3nc(-c4cnc(N)nc4)cc(N4CCOCC4)c3s2)cc1 [II-g-1, N-(4-acrylamidophenethyl)-5-(2-aminopyrimidin-5-yl)-7-morpholinothieno[3,2-b]pyridine-2-carboxamide]
5 | 100 to 1000 nM | 10 to 100 nM | C=CC(=O)Nc1ccc(OCc2cc(-c3cnc(N)nc3)nc(N3CCOCC3)c2)cc1 [XII-5, N-(4-((2-(2-aminopyrimidin-5-yl)-6-morpholinopyridin-4-yl)methoxy)phenyl)acrylamide]
6 | 100 to 1000 nM | ≤ 10 nM | C/C=C/C(=O)CCCC(=O)Nc1ccc(S(=O)(=O)Nc2cc(-c3ccc4nccc(-c5ccncc5)c4c3)cnc2OC)cc1 [X-1, (E)-N-(4-(N-(2-methoxy-5-(4-(pyridin-4-yl)quinolin-6-yl)pyridin-3-yl)sulfamoyl)phenyl)-5-oxooct-6-enamide]
7 | 10 to 100 nM | 100 to 1000 nM | O=C(/C=C/c1ccncc1)CCC(=O)N1CCN(Cc2cc3nc(-c4cccc5[nH]ncc45)nc(N4CCOCC4)c3s2)CC1 [II-a-141, (E)-1-(4-((2-(1H-indazol-4-yl)-4-morpholinothieno[3,2-d]pyrimidin-6-yl)methyl)piperazin-1-yl)-6-(pyridin-4-yl)hex-5-ene-1,4-dione]
8 | 100 to 1000 nM | 100 to 1000 nM | C=CC(=O)Nc1cccc(C(=O)N2CC=C(c3cc(-c4cnc(N)nc4)nc(N4CCOCC4)c3)CC2)c1 [XII-47, N-(3-(4-(2-(2-aminopyrimidin-5-yl)-6-morpholinopyridin-4-yl)-1,2,3,6-tetrahydropyridine-1-carbonyl)phenyl)acrylamide]
9 | 100 to 1000 nM | 100 to 1000 nM | CC(C)=CC(=O)c1ccc(C(=O)N2CC=C(c3cc(-c4cnc(N)nc4)nc(N4CCOCC4)c3)CC2)cc1 [XII-50, 1-(4-(4-(2-(2-aminopyrimidin-5-yl)-6-morpholinopyridin-4-yl)-1,2,3,6-tetrahydropyridine-1-carbonyl)phenyl)-3-methylbut-2-en-1-one]
10 | 100 to 1000 nM | 100 to 1000 nM | C=CC(=O)Nc1cccc(N2CC=C(c3cc(-c4cnc(N)nc4)nc(N4CCOCC4)c3)CC2)c1 [XII-48]
11 | 10 to 100 nM | 10 to 100 nM | O=C(/C=C/c1ccccc1)CCCC(=O)N1CC=C(c2cc3nc(-c4cccc5[nH]ncc45)nc(N4CCOCC4)c3s2)CC1 [II-a-137, (E)-1-(4-(2-(1H-indazol-4-yl)-4-morpholinothieno[3,2-d]pyrimidin-6-yl)-5,6-dihydropyridin-1(2H)-yl)-7-phenylhept-6-ene-1,5-dione]
12 | 10 to 100 nM | 100 to 1000 nM | CC(C)=CC(=O)CCC(=O)N1CCC2(CC1)CN(c1cc(-c3cnc(N)nc3)nc(N3CCOCC3)c1)C2 [XII-39, 1-(2-(2-(2-aminopyrimidin-5-yl)-6-morpholinopyridin-4-yl)-2,7-diazaspiro[3.5]nonan-7-yl)-6-methylhept-5-ene-1,4-dione]
13 | 100 to 1000 nM | 100 to 1000 nM | C=CC(=O)Nc1ccc(C(=O)N2CC=C(c3cc(-c4cnc(N)nc4)nc(N4CCOCC4)c3)CC2)cc1 [XII-46, N-(4-(4-(2-(2-aminopyrimidin-5-yl)-6-morpholinopyridin-4-yl)-1,2,3,6-tetrahydropyridine-1-carbonyl)phenyl)acrylamide]
14 | 10 to 100 nM | 10 to 100 nM | C=CC(=O)Nc1ccc(C#Cc2cc(-c3cnc(N)nc3)nc(N3CCOCC3)c2)cc1 [XII-4, N-(4-((2-(2-aminopyrimidin-5-yl)-6-morpholinopyridin-4-yl)ethynyl)phenyl)acrylamide]
15 | 100 to 1000 nM | 100 to 1000 nM | C/C=C/C(=O)CCC(=O)N1CCC(n2ncc3c(N4CCOCC4)nc(-c4ccc(NC(=O)NC)cc4)nc32)CC1 [VII-7, (E)-1-methyl-3-(4-(4-morpholino-1-(1-(4-oxohept-5-enoyl)piperidin-4-yl)-1H-pyrazolo[3,4-d]pyrimidin-6-yl)phenyl)urea]
16 | 100 to 1000 nM | 100 to 1000 nM | C=CC(=O)Nc1ccc(S(=O)(=O)N2CCN(Cc3cc4nc(-c5cccc6[nH]ncc56)nc(N5CCOCC5)c4s3)CC2)cc1 [II-a-118, N-(4-(4-((2-(1H-indazol-4-yl)-4-morpholinothieno[3,2-d]pyrimidin-6-yl)methyl)piperazin-1-ylsulfonyl)phenyl)acrylamide]
17 | 10 to 100 nM | 100 to 1000 nM | Cc1ccccc1/C=C/C(=O)CCC(=O)N1CCN(Cc2cc3nc(-c4cccc5[nH]ncc45)nc(N4CCOCC4)c3s2)CC1 [II-a-138, (E)-1-(4-((2-(1H-indazol-4-yl)-4-morpholinothieno[3,2-d]pyrimidin-6-yl)methyl)piperazin-1-yl)-6-o-tolylhex-5-ene-1,4-dione]
18 | 100 to 1000 nM | ≥ 1000 nM | COc1ccc(-c2nn(C3CCN(C(=O)CCC(=O)/C=C/c4ccccc4)CC3)c3ncnc(N)c23)cc1OC [XI-3, (E)-1-(4-(4-amino-3-(3,4-dimethoxyphenyl)-1H-pyrazolo[3,4-d]pyrimidin-1-yl)piperidin-1-yl)-6-phenylhex-5-ene-1,4-dione]
19 | 100 to 1000 nM | ≤ 10 nM | C=CC(=O)Nc1ccc(N2CCN(C(=O)c3cc4nc(-c5cccc(O)c5)nc(N5CCOCC5)c4s3)CC2)cc1 [II-a-127, N-(4-(4-(2-(3-hydroxyphenyl)-4-morpholinothieno[3,2-d]pyrimidine-6-carbonyl)piperazin-1-yl)phenyl)acrylamide]
20 | > 1000 nM | 100 to 1000 nM | CC(C)=CC(=O)CCCC(=O)N1CCC2(CC1)CN(c1cc(-c3cnc(N)nc3)nc(N3CCOCC3)c1)C2 [XII-41, 1-(2-(2-(2-aminopyrimidin-5-yl)-6-morpholinopyridin-4-yl)-2,7-diazaspiro[3.5]nonan-7-yl)-7-methyloct-6-ene-1,5-dione]
21 | 100 to 1000 nM | 10 to 100 nM | O=C(/C=C/c1cccnc1)CCC(=O)N1CCN(Cc2cc3nc(-c4cccc5[nH]ncc45)nc(N4CCOCC4)c3s2)CC1 [II-a-132, (E)-1-(4-((2-(1H-indazol-4-yl)-4-morpholinothieno[3,2-d]pyrimidin-6-yl)methyl)piperazin-1-yl)-6-(pyridin-3-yl)hex-5-ene-1,4-dione]
22 | < 10 nM | 10 to 100 nM | C/C=C/C(=O)CCC(=O)N1CCC(O)(CCc2cc3nc(-c4cccc(O)c4)nc(N4CCOCC4)c3s2)CC1 [II-a-123, (E)-1-(4-hydroxy-4-(2-(2-(3-hydroxyphenyl)-4-morpholinothieno[3,2-d]pyrimidin-6-yl)ethyl)piperidin-1-yl)hept-5-ene-1,4-dione]
23 | 100 to 1000 nM | ≤ 10 nM | O=C(/C=C/c1cccs1)CCC(=O)N1CCN(Cc2cc3nc(-c4cccc5[nH]ncc45)nc(N4CCOCC4)c3s2)CC1 [II-a-126, (E)-1-(4-((2-(1H-indazol-4-yl)-4-morpholinothieno[3,2-d]pyrimidin-6-yl)methyl)piperazin-1-yl)-6-(thiophen-2-yl)hex-5-ene-1,4-dione]
24 | 10 to 100 nM | 100 to 1000 nM | C/C=C/C(=O)CCC(=O)NCc1ccc(-c2cc3nc(-c4cccc5[nH]ncc45)nc(N4CCOCC4)c3s2)cc1 [II-a-115, (E)-N-(4-(2-(1H-indazol-4-yl)-4-morpholinothieno[3,2-d]pyrimidin-6-yl)benzyl)-4-oxohept-5-enamide]
25 | 10 to 100 nM | 100 to 1000 nM | Cc1ccc(/C=C/C(=O)CCC(=O)N2CCN(Cc3cc4nc(-c5cccc6[nH]ncc56)nc(N5CCOCC5)c4s3)CC2)cc1 [II-a-139, (E)-1-(4-((2-(1H-indazol-4-yl)-4-morpholinothieno[3,2-d]pyrimidin-6-yl)methyl)piperazin-1-yl)-6-p-tolylhex-5-ene-1,4-dione]
26 |  | ≤ 10 nM | COc1ncc(-c2ccc3nccc(-c4ccncc4)c3c2)cc1NS(=O)(=O)c1ccc(F)cc1F [X-ref]
